Some results are limits rather than exact numbers.

The values below come from patent publication US7645720B2, “Extreme environment surfactant compositions comprising hydrolysis resistant organomodified disiloxane surfactants” (Momentive Performance Materials Inc., priority 2005, dated 2010).

Holding throughout (assay type): physicochemical
Data set [1] in a line: Surface tension (Kruss surface tensiometer). The conditions noted are these: 0.1 wt % in 0.005M NaCl water. How it is done: Surface tension was measured using a Kruss surface tensiometer, with a sand blasted platinum blade as the sensor. Solutions of the various components were prepared at 0.1 wt % in 0.005M NaCl water (Deionized), as an equilibrium aid.
A short description of data set [2]: Spreading of 10 μL droplet on polyacetate film. The conditions noted are these: 30 seconds. As to the method: (§1) Spreading was determined by applying a 10 μL droplet, of surfactant solution to polyacetate film (USI, “Crystal Clear Write on Film”) and measuring the spread diameter (mm) after 30 seconds, at a relative humidity between 50 and 70% (at 22 to 25° C.). The solution was applied with an automatic pipette to provide droplets of reproducible volume. Deionized water that was further purified with a Millipore filtration system was used to prepare the surfactant solutions.

Data set [3] can be described thus: Spreading properties vs time at set pH (resistance to hydrolysis). To be noted: 0.4 wt %. As to the method: as §1
Therefore solutions of the organomodified disiloxane surfactants of the present invention, as well as comparative surfactants were prepared at desired use levels and pH. Spreading was determined as a function of time to illustrate resistance to hydrolysis. […]
Solutions (0.4 wt %) of the surfactants were prepared at pH 4 and pH 5 and spreading properties were observed over time. The test conditions are outlined in Example 8.

A short description of data set [4]: Hydrolytic stability by HPLC.
Data set [5] can be described thus: Hydrolytic stability by HPLC. To be noted: 0.5 wt %. As to the method: Hydrolytic stability was determined for representative compositions of the present invention using HPLC. Solutions of the various compositions were prepared at 0.5 wt % over a pH range from pH 4 to pH 12, and monitored by HPLC for decomposition as a function of time.
• Detector: ELSD/LTA (Evaporative Light Scattering with Low Temperature Adapter • Conditions: 30° C., 1.95 SLPM N2 • Column: Phenomenex LUNA C18 end cap, 5 micron, 75×4.6 mm • Flow Rate: 1.0 mL/min. • Inj. Volume: 10 microliters • Sample: 0.050 g/mL in methanol

As for `CC(C)C[Si](C)(C)O[Si](C)(C)CCCOCCOCCOCCOCCOCCOCCOCCOCCOCCOCCOCCO` [Product 7], the “Surface Tension” value in data set [1] (listed as 7) was found to be 23.9 mN/m. Besides, the “Spread Diameter” value was found to be 14 mm in data set [2] (0.1%, listed as 7); 15 mm in data set [2] (0.2%, listed as 7); 25 mm in data set [2] (0.4%, listed as 7).

Consider `C[Si](C)(C)CC[Si](C)(C)O[Si](C)(C)CCCOCCOCCOCCOCCOCCOCCOCCOCCOCCOCCOCCO` [Product 11], for which the “Surface Tension” value in data set [1] is given as 24.5 mN/m. Further, the entries for the “Spread Diameter” value in data set [2] (0.1%), in data set [2] (0.2%) and in data set [2] (0.4%) were 20 mm, 21 mm and 32 mm, respectively. Besides, the “Spreading Diameter” value is listed as 16 mm in data set [3] (pH 4, 0 h); 10 mm in data set [3] (pH 4, 1 mo); 8 mm in data set [3] (pH 4, 1 wk); 8 mm in data set [3] (pH 4, 2 wk); 12 mm in data set [3] (pH 4, 3 wk); 23 mm in data set [3] (pH 4, 1 h). Besides, the “Spreading Diameter” value in data set [3] (pH 4, 4 h) amounted to 23 mm; in data set [3] (pH 4, 24 h) it was 44 mm; in data set [3] (pH 4, 48 h), 38 mm; in data set [3] (pH 4, 72 h), 28 mm; in data set [3] (pH 5, 0 h), 26 mm; in data set [3] (pH 5, 1 mo), 42 mm. Besides, the “Spreading Diameter” value in data set [3] (pH 5, 1 wk) turned out to be 29 mm; in data set [3] (pH 5, 2 wk), 33 mm; in data set [3] (pH 5, 3 wk) it was 33 mm; in data set [3] (pH 5, 1 h), 23 mm; in data set [3] (pH 5, 24 h), 24 mm; in data set [3] (pH 5, 48 h), 32 mm. Moreover, in data set [3] (pH 5, 72 h), the “Spreading Diameter” value came to 35 mm. Moreover, the “Stability: % Siloxane Surfactant Remaining” value in data set [4] (pH 4, 3 wk, Stock Solution 2.5 wt %) is 79%; in data set [4] (pH 4, 6 wk, Stock Solution 2.5 wt %), 56%; in data set [4] (pH 4, 11 wk, Stock Solution 2.5 wt %), 10%; in data set [4] (pH 4, 96 h, Stock Solution 2.5 wt %), 100%; in data set [4] (pH 5, 3 wk, Stock Solution 2.5 wt %), 100%; in data set [4] (pH 5, 6 wk, Stock Solution 2.5 wt %) it was 100%. In addition, the “Stability: % Siloxane Surfactant Remaining” value was found to be 100% in data set [4] (pH 5, 11 wk, Stock Solution 2.5 wt %); 100% in data set [4] (pH 5, 96 h, Stock Solution 2.5 wt %); 100% in data set [4] (pH 7, 3 wk, Stock Solution 2.5 wt %); 100% in data set [4] (pH 7, 6 wk, Stock Solution 2.5 wt %); 100% in data set [4] (pH 7, 11 wk, Stock Solution 2.5 wt %); 100% in data set [4] (pH 7, 96 h, Stock Solution 2.5 wt %). For the same compound, the “Stability: % Siloxane Surfactant Remaining” value in data set [4] (pH 9, 3 wk, Stock Solution 2.5 wt %) is recorded as 100%; in data set [4] (pH 9, 6 wk, Stock Solution 2.5 wt %), 100%; in data set [4] (pH 9, 11 wk, Stock Solution 2.5 wt %), 100%; in data set [4] (pH 9, 96 h, Stock Solution 2.5 wt %), 100%; in data set [4] (pH 10, 3 wk, Stock Solution 2.5 wt %), 100%; in data set [4] (pH 10, 6 wk, Stock Solution 2.5 wt %), 100%. Besides, the “Stability: % Siloxane Surfactant Remaining” value was 100% in data set [4] (pH 10, 11 wk, Stock Solution 2.5 wt %) and 100% in data set [4] (pH 10, 96 h, Stock Solution 2.5 wt %).

Turning to `CC(C)C[Si](C)(C)O[Si](C)(C)CCCOCCOCCOCCOCCOCCOCCOCCOCCOCCOCCOCCO` [Product 4], the “Surface Tension” value in data set [1] (listed as 4) worked out at 24.1 mN/m. For the same compound, the “Spread Diameter” value worked out at 8 mm in data set [2] (0.1%, listed as 4); 9 mm in data set [2] (0.2%, listed as 4); 10 mm in data set [2] (0.4%, listed as 4).

As to `C[Si](C)(C)O[Si](C)(C)CCCOCCOCCOCCOCCOCCOCCOCCOCCOCCOCCOCCO` [Comparative C, reference compound], the “Surface Tension” value in data set [1] is reported as 24.1 mN/m. Besides, the “Spread Diameter” value is reported as 6 mm in data set [2] (0.1%), 8 mm in data set [2] (0.2%) and 9 mm in data set [2] (0.4%).

With `CC(C)(C)CC(C)(C)c1ccc(OCCOCCOCCOCCOCCOCCOCCOCCOCCOCCO)cc1` [OPE, Octylphenolethoxylate], the “Surface Tension” value in data set [1] is 31.8 mN/m. For the same compound, the “Spread Diameter” value in data set [2] (0.4%) was 10 mm.

In the case of `C[Si](C)(CCCOCCOCCOCCOCCOCCOCCOCCOCCOCCOCCOCCO)O[Si](C)(C)C1CC2CC1C1C=CCC21` (stereo not shown) [Comparative D, reference compound], the “Surface Tension” value in data set [1] worked out at 32.7 mN/m. The “Spread Diameter” value in data set [2] (0.1%) was found to be 7 mm; in data set [2] (0.4%) it was 6 mm. The “Stability: % Siloxane Surfactant Remaining” value in data set [5] (pH 5, 48 h) is greater than 95%; in data set [5] (pH 5, 9 days) it was 99%; in data set [5] (pH 7, 48 h), greater than 95%; in data set [5] (pH 9, 48 h) it was greater than 95%; in data set [4] (pH 4, 48 h, 0.5 wt %), 82%; in data set [4] (pH 4, 9 days, 0.5 wt %), 44%. Also, the “Stability: % Siloxane Surfactant Remaining” value is reported as 99% in data set [4] (pH 7, 9 days, 0.5 wt %); 99% in data set [4] (pH 9, 9 days, 0.5 wt %); greater than 95% in data set [4] (pH 10, 48 h, 0.5 wt %); 99% in data set [4] (pH 10, 9 days, 0.5 wt %).
